Assay results from patent US20240293364A1, “BIOMARKERS FOR CANCER THERAPY USING MDM2 ANTAGONISTS” (OTSUKA PHARMACEUTICAL CO., LTD., priority 2021, published 2024).

Assays:
Assay type in all cases: cell-based
[1] = system: panel of 237 cancer cell lines; assay: Cell panel screen of 237 cancer cell lines; conditions: MSI-H colorectal cell lines
Excerpt: Genomic features for these cell lines such as somatic mutations, copy number alterations and hypermethylation were obtained from the list of Cancer Functional Events as mentioned in Garnett et al (2016) ANOVA method was used to identify significant associations of genomics features to drug response.

[2] = system: ATM mutant cell lines LNCap and HepG2; assay: Apoptosis assays (Annexin V-FITC/PI flow cytometry); conditions: LNCap prostate and HepG2 liver (FIG. 2D)
Method: After 72-hour incubation of the cells with compound, cells were trypsinised, washed with PBS and immediately used for flow cytometry analysis.
The samples were stained with eBioscience™ Annexin V-FITC Apoptosis Detection Kit (#BMS500FI-100, Thermo Fisher Scientific, Waltham, MA, USA) according to manufacturer's recommendations. Briefly, the samples were washed in PBS and resuspended in 200 μl of 1× binding buffer containing 5 μl of Annexin V-FITC for 10 min at room temperature. Following the incubation, samples were washed with 1× binding buffer and resuspended in 200 μl 1× binding buffer and 10 μl of the 20 μg/ml PI.
The stained samples were then immediately analysed by flow cytometry on Guava easyCyte HT cytometer (Merck-Millipore). The cell populations were separated into three groups: live cells showing only a low level of fluorescence (Annexin V-/PI-), apoptotic cells showing green fluorescence (Annexin V+/PI−) and dead cells showing both red and green fluorescence (Annexin V+/PI+). Data analyses were performed using Microsoft excel and results plotted on Prism version 7 (GraphPad Software, California, USA).

[3] = system: MSI-H colorectal cancer PDOs; assay: Proliferation assays on patient-derived organoids (PDOs), MSI-H colorectal cancer; conditions: 6 MSI-H colorectal cancer PDOs (FIG. 4C)
Method: Organoids were retrieved from the CrownBIO organoid bank and expanded before getting enough quantity according to standard operation procedure. One day before organoids seeding, the needed number of organoids were passaged 1:1 using 50% Matrigel and 50% corresponding culture medium. On Day 0 organoids were seeded and compound added: organoids were collected by adding 20 μl 100× Dispase solution to each well from a 6-well plate, and incubating at 37C for 30 min. After incubation, organoids were collected from all wells and pipetted through a pre-wet 100 μm filter into a 50 ml plastic tube, then filtered the flow through over a pre-wet 20 μm filter, inverted the 20 μm filter and recovered the organoids in a new 50 ml tube, Collect organoids were then resuspended in the corresponding culture media, and counted. Organoids cell suspensions were added to 384-well plate by Multidrop dispenser. 2-4 hours after organoids seeding, compounds were added by Tecan D300e, then plates were placed back into incubator for 5 days' incubation. On day 5, proliferation was assayed by CellTiter-Glo assay. […] The plate was then read (for luminescence) in an Envision plate reader.

DDR signalling pathway = assay: Western blotting of DDR signalling in ATM mutant cell lines; conditions: ATM mutant cell lines (FIG. 2E)
Method: The cell lysates were then analysed by Western blotting. […] After washing, blots were incubated for 1 hour with infrared dye labelled anti-rabbit IR800 or anti-goat IR800 secondary antibodies at a dilution of 1: 10,000 in Odyssey blocking buffer (LiCor Biosciences, Lincoln, USA).

CC[C@@](O)(c1cc(F)c2c(c1)C(=O)N([C@H](c1ccc(Cl)cc1)[C@H](C)C(=O)O)[C@@]2(OC)c1ccc(Cl)cc1)C1CCOCC1 [Example 124, (2S,3S)-3-(4-chlorophenyl)-3-[(1R)-1-(4-chlorophenyl)-7-fluoro-5-[(1S)-1-hydroxy-1-(oxan-4-yl)propyl]-1-methoxy-3-oxo-2,3-dihydro-1H-isoindol-2-yl]-2-methylpropanoic acid]
sensitivity in the cell panel data [1]: sensitive
sensitivity as measured by increased apoptosis [2]: showed sensitivity
sensitivity as measured by reduction in cell proliferation [3]: showed sensitivity
modulation of the DDR signalling pathway (western blot) (DDR signalling pathway): clear modulation of the DDR signalling pathway
